Calls of active or inactive are those of the source. The calls are words filed in the database; no cut-off is given here.
What was measured:
[1] = Selectivity index, ratio of IC50 for human MCF-10A to IC50 for human MDA-MB-231 cells; assay type: toxicity; details: MCF-10A cells and MDA-MB-231 cells, read-out: Ratio IC50
[2] = tested on: A549; assay: Antiproliferative activity against human A549 cells assessed as inhibition of cell growth incubated for 48 hrs by MTT assay; assay type: functional, cell-based; details: A549, 48 h
[3] = tested on: NCI/ADR-RES; assay: Antiproliferative activity against human MCF7ADR cells assessed as inhibition of cell growth incubated for 48 hrs by MTT assay; assay type: functional, cell-based
[4] = tested on: PC-3; assay: Antiproliferative activity against human PC-3 cells assessed as inhibition of cell growth incubated for 48 hrs by MTT assay; assay type: functional, cell-based; details: PC-3, 48 h
[5] = tested on: MCF7; assay: Antiproliferative activity against human MCF7 cells assessed as inhibition of cell growth incubated for 48 hrs by MTT assay; assay type: functional, cell-based; details: MCF7, 48 h
[6] = Cytotoxicity against human MCF-10A cells assessed as inhibition of cell growth incubated for 48 hrs by MTT assay; assay type: toxicity, cell-based
[7] = Cytotoxicity against human BEAS-2B cells assessed as inhibition of cell growth incubated for 48 hrs by MTT assay; assay type: toxicity, cell-based
[8] = Selectivity index, ratio of IC50 for antiproliferative activity against human A549 cells assessed as inhibition of cell growth to IC50 for antiproliferative activity against human A549/Taxol cells assessed as inhibition of cell growth; assay type: functional
[9] = tested on: HepG2; assay: Antiproliferative activity against human HepG2 cells assessed as inhibition of cell growth incubated for 48 hrs by MTT assay; assay type: functional, cell-based; details: HepG2, 48 h
[10] = Selectivity index, ratio of IC50 for antiproliferative activity against human MCF7 cells assessed as inhibition of cell growth to IC50 for antiproliferative activity against human MCF7ADR cells assessed as inhibition of cell growth; assay type: functional
[11] = tested on: A549/TR; assay: Antiproliferative activity against human A549/Taxol cells assessed as inhibition of cell growth incubated for 48 hrs by MTT assay; assay type: functional, cell-based
[12] = tested on: NCI/ADR-RES; assay: Induction of NO release in human MCF7ADR cells at 100 uM by Griess reagent assay; assay type: functional, cell-based; details: time <= 10.0 hrs
[13] = tested on: NCI/ADR-RES; assay: Induction of NO release in human MCF7ADR cells at 100 uM measured for 5 hrs by Griess reagent assay; assay type: functional, cell-based
[14] = tested on: MCF7; assay: Induction of NO release in human MCF7 cells at 100 uM measured for 5 hrs by Griess reagent assay; assay type: functional, cell-based

IC50 [11] | SMILES | selectivity ratio [1] | IC50 [2] | IC50 [3] | IC50 [4] | IC50 [5] | IC50 at 48 h [6] | IC50 at 48 h [7] | Ratio IC50 [8] | IC50 [9] | Ratio IC50 [10] | Activity [12] | Activity [13] | Activity [14]
 | CCN(CC)c1ccc2cc(C(=O)OCCCCCOc3cc4ccc(=O)oc4cc3OCCCCCCOc3no[n+]([O-])c3S(=O)(=O)c3ccccc3)c(=O)oc2c1 | > 6250 |  |  |  |  |  |  |  |  |  |  |  | 
6.65 µM | O=S(=O)(c1ccccc1)c1c(OCCCCCCOc2cccc3c2Oc2cccc(c2)CCc2ccc(O)c(c2)Oc2ccc(cc2)CC3)no[n+]1[O-] |  | > 40 µM | 0.37 µM | > 20 µM | > 20 µM | > 20 µM | > 20 µM | >6 | > 20 µM | >54 |  |  | 
 | O=C(/N=c1\c[n+](-c2ccccc2)[n-]o1)Oc1cccc2c1Oc1cccc(c1)CCc1ccc(O)c(c1)Oc1ccc(cc1)CC2 |  | > 40 µM | > 20 µM | > 20 µM | > 20 µM |  |  |  | > 20 µM |  | Time-dependent-effect | inactive | inactive

— ChEMBL document CHEMBL6103624, “Design, Synthesis, and Biological Evaluation of Marchantin C-NO Donor Hybrids for Overcoming Pgp-Mediated Drug Resistance by Targeting Lysosome” (J Med Chem, 2025)
